{"source": "PubChem BioAssay AID256", "about": "(DTP/NCI, 2004)", "tested_on": "CD2F1 mice, L1210 leukemia ip, survival T/C", "assay": "NCI In Vivo Anticancer Drug Screen. Data for tumor model L1210 Leukemia (intraperitoneal) in CD2F1 (CDF1) mice", "details": "higher = longer survival", "summary_of_the_method": "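Activity against a transplanted murine tumor was judged by comparing the compound group with a vehicle group. The outcome in the treated animals was divided by that in the controls.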", "key": {"[1]": {"details": "endpoint: mean survival time, dose: 100.0 mg/kg/injection, schedule: Q04DX003 (ip), vehicle: saline with Tween-80"}, "[2]": {"details": "endpoint: mean survival time, dose: 200.0 mg/kg/injection, schedule: Q04DX003 (ip), vehicle: saline with Tween-80"}, "[3]": {"details": "endpoint: mean survival time, dose: 400.0 mg/kg/injection, schedule: Q04DX003 (ip), vehicle: saline with Tween-80"}}, "note": "Toxic doses and inconclusive results are not listed.", "data": [{"smiles": "Cc1ccc2nc(NC(=O)N(CCCl)N=O)sc2c1", "values": [{"measurement": "T/C", "setting": "endpoint: mean survival time, dose: 118.0 mg/kg/injection, schedule: Q01DX009 (ip), vehicle: other", "value": "197 % of control"}, {"measurement": "T/C", "setting": "endpoint: mean survival time, dose: 177.0 mg/kg/injection, schedule: Q01DX001 (ip), vehicle: other", "value": "162 % of control"}, {"measurement": "T/C", "setting": "endpoint: mean survival time, dose: 177.0 mg/kg/injection, schedule: Q01DX009 (ip), vehicle: other", "value": "96 % of control"}, {"measurement": "T/C", "setting": "endpoint: mean survival time, dose: 266.0 mg/kg/injection, schedule: Q01DX001 (ip), vehicle: other", "value": "154 % of control"}, {"measurement": "T/C", "setting": "endpoint: mean survival time, dose: 266.0 mg/kg/injection, schedule: Q01DX009 (ip), vehicle: other", "value": "111 % of control"}, {"measurement": "T/C", "setting": "endpoint: mean survival time, dose: 400.0 mg/kg/injection, schedule: Q01DX001 (ip), vehicle: other", "value": "156 % of control"}, {"measurement": "T/C", "setting": "endpoint: mean survival time, dose: 400.0 mg/kg/injection, schedule: Q01DX009 (ip), vehicle: other", "value": "88 % of control"}, {"measurement": "T/C", "setting": "endpoint: mean survival time, dose: 600.0 mg/kg/injection, schedule: Q01DX001 (ip), vehicle: other", "value": "234 % of control"}]}, {"smiles": "COC(=O)CSC(=S)N(C)C", "values": [{"measurement": "T/C", "setting": "[1]", "value": "98 % of control"}, {"measurement": "T/C", "setting": "[2]", "value": "100 % of control"}, {"measurement": "T/C", "setting": "[3]", "value": "90 % of control"}]}, {"smiles": "CS(C)=C1C(=O)NC(=S)NC1=O", "values": [{"measurement": "T/C", "setting": "endpoint: median survival time, dose: 20.75 mg/kg/injection, schedule: Q01DX009 (ip), vehicle: saline with Tween-80", "value": "108 % of control"}, {"measurement": "T/C", "setting": "endpoint: median survival time, dose: 41.5 mg/kg/injection, schedule: Q01DX009 (ip), vehicle: saline with Tween-80", "value": "102 % of control"}, {"measurement": "T/C", "setting": "endpoint: median survival time, dose: 83.0 mg/kg/injection, schedule: Q01DX009 (ip), vehicle: saline with Tween-80", "value": "111 % of control"}, {"measurement": "T/C", "setting": "endpoint: median survival time, dose: 166.0 mg/kg/injection, schedule: Q01DX009 (ip), vehicle: saline with Tween-80", "value": "107 % of control"}]}, {"smiles": "Nc1c(O)cc(S(=O)(=O)O)c2ccccc12", "values": [{"measurement": "T/C", "setting": "endpoint: mean survival time, dose: 25.0 mg/kg/injection, schedule: Q04DX003 (ip), vehicle: saline", "value": "95 % of control"}, {"measurement": "T/C", "setting": "endpoint: mean survival time, dose: 50.0 mg/kg/injection, schedule: Q04DX003 (ip), vehicle: saline", "value": "103 % of control"}, {"measurement": "T/C", "setting": "endpoint: mean survival time, dose: 100.0 mg/kg/injection, schedule: Q04DX003 (ip), vehicle: saline", "value": "109 % of control"}]}, {"smiles": "C/C=C/CC1(Cc2ccccc2)C(=O)NC(=S)NC1=O", "values": [{"measurement": "T/C", "setting": "endpoint: mean survival time, dose: 9.5 mg/kg/injection, schedule: Q01DX001 (ip), vehicle: other", "value": "108 % of control"}, {"measurement": "T/C", "setting": "endpoint: mean survival time, dose: 19.0 mg/kg/injection, schedule: Q01DX001 (ip), vehicle: other", "value": "111 % of control"}]}, {"smiles": "O=[N+]([O-])c1cc(Cl)ccc1Nc1ccccc1", "values": [{"measurement": "T/C", "setting": "endpoint: mean survival time, dose: 100.0 mg/kg/injection, schedule: Q04DX003 (ip), vehicle: Klucel (hydroxypropylcellulose) (HPC)", "value": "102 % of control"}, {"measurement": "T/C", "setting": "endpoint: mean survival time, dose: 200.0 mg/kg/injection, schedule: Q04DX003 (ip), vehicle: Klucel (hydroxypropylcellulose) (HPC)", "value": "102 % of control"}, {"measurement": "T/C", "setting": "endpoint: mean survival time, dose: 400.0 mg/kg/injection, schedule: Q04DX003 (ip), vehicle: Klucel (hydroxypropylcellulose) (HPC)", "value": "98 % of control"}]}, {"smiles": "COc1cccc2c1C(=O)c1c(O)c3c(c(O)c1C2=O)C[C@@](O)(C(=O)CN1CCOCC1)C[C@@H]3OC1CC(N)C(O)C(C)O1", "note": "(some centres undefined)", "values": [{"measurement": "T/C", "setting": "endpoint: mean survival time, dose: 6.25 mg/kg/injection, schedule: Q04DX003 (ip), vehicle: water", "value": "90 % of control"}, {"measurement": "T/C", "setting": "endpoint: mean survival time, dose: 12.5 mg/kg/injection, schedule: Q04DX003 (ip), vehicle: water", "value": "91 % of control"}, {"measurement": "T/C", "setting": "endpoint: mean survival time, dose: 25.0 mg/kg/injection, schedule: Q04DX003 (ip), vehicle: water", "value": "105 % of control"}, {"measurement": "T/C", "setting": "endpoint: mean survival time, dose: 50.0 mg/kg/injection, schedule: Q04DX003 (ip), vehicle: water", "value": "91 % of control"}]}, {"smiles": "Cc1ccccc1/C1=C/CCCCCC1", "values": [{"measurement": "T/C", "setting": "endpoint: mean survival time, dose: 100.0 mg/kg/injection, schedule: Q01DX001 (ip), vehicle: saline sonified", "value": "107 % of control"}, {"measurement": "T/C", "setting": "[1]", "value": "102 % of control"}, {"measurement": "T/C", "setting": "endpoint: mean survival time, dose: 200.0 mg/kg/injection, schedule: Q01DX001 (ip), vehicle: saline sonified", "value": "94 % of control"}, {"measurement": "T/C", "setting": "[2]", "value": "104 % of control"}, {"measurement": "T/C", "setting": "endpoint: mean survival time, dose: 400.0 mg/kg/injection, schedule: Q01DX001 (ip), vehicle: saline sonified", "value": "89 % of control"}, {"measurement": "T/C", "setting": "[3]", "value": "93 % of control"}]}, {"smiles": "CCC(CC)C(O)CC(O)CC(C)C", "note": "(centres undefined)", "values": [{"measurement": "T/C", "setting": "endpoint: mean survival time, dose: 25.0 mg/kg/injection, schedule: Q01DX009 (ip), vehicle: other", "value": "97 % of control"}, {"measurement": "T/C", "setting": "endpoint: mean survival time, dose: 50.0 mg/kg/injection, schedule: Q01DX009 (ip), vehicle: other", "value": "103 % of control"}, {"measurement": "T/C", "setting": "endpoint: mean survival time, dose: 100.0 mg/kg/injection, schedule: Q01DX009 (ip), vehicle: other", "value": "97 % of control"}, {"measurement": "T/C", "setting": "endpoint: mean survival time, dose: 100.0 mg/kg/injection, schedule: Q04DX003 (ip), vehicle: other", "value": "86 % of control"}, {"measurement": "T/C", "setting": "endpoint: mean survival time, dose: 400.0 mg/kg/injection, schedule: Q04DX003 (ip), vehicle: other", "value": "94 % of control"}]}, {"smiles": "CN1CC2(Cc3ccccc3)c3ccccc3NC2(NC(=O)CCl)C1=O", "note": "(centres undefined)", "values": [{"measurement": "T/C", "setting": "endpoint: mean survival time, dose: 25.0 mg/kg/injection, schedule: Q04DX002 (ip), vehicle: saline with Tween-80", "value": "87 % of control"}, {"measurement": "T/C", "setting": "endpoint: mean survival time, dose: 50.0 mg/kg/injection, schedule: Q04DX002 (ip), vehicle: saline with Tween-80", "value": "95 % of control"}, {"measurement": "T/C", "setting": "endpoint: mean survival time, dose: 100.0 mg/kg/injection, schedule: Q04DX002 (ip), vehicle: saline with Tween-80", "value": "91 % of control"}, {"measurement": "T/C", "setting": "endpoint: mean survival time, dose: 200.0 mg/kg/injection, schedule: Q01DX001 (ip), vehicle: saline with Tween-80", "value": "92 % of control"}, {"measurement": "T/C", "setting": "endpoint: mean survival time, dose: 200.0 mg/kg/injection, schedule: Q04DX002 (ip), vehicle: saline with Tween-80", "value": "89 % of control"}, {"measurement": "T/C", "setting": "endpoint: mean survival time, dose: 400.0 mg/kg/injection, schedule: Q01DX001 (ip), vehicle: saline with Tween-80", "value": "96 % of control"}]}]}
